Where two headings read alike, the source gives them in different places.
Experiments:
[1] = test system: Bacillus spp.; assay: Molecular enumeration (quantitative PCR) in digesta; format: in vivo
[2] = test system: male Ross 308 broilers with induced Necrotic Enteritis challenge; parameters: species or system broiler chickens; conditions: in vivo
[3] = test system: male Ross 308 broilers with induced Necrotic Enteritis challenge (E. maxima, Clostridium perfringens); format: in vivo, broiler chickens
[4] = test system: Clostridium perfringens; format: in vivo
[5] = test system: Vencobb 400 broilers; format: in vivo, broiler chickens
[6] = test system: male Ross 308 broilers; format: in vivo, broiler chickens; conditions: 1-42 d
[7] = 1-35 days, necrotic enteritis challenge

Compound: CC[C@@H](C(=O)O)[C@@H]1O[C@@H]([C@@H](C)[C@H](O)[C@H](C)C(=O)[C@H](CC)[C@H]2O[C@]3(C=C[C@@H](O)[C@]4(CC[C@@](C)([C@H]5CC[C@](O)(CC)[C@H](C)O5)O4)O3)[C@H](C)C[C@@H]2C)[C@@H](C)C[C@@H]1C [Narasin]
- Bacillus spp. ([1]; Day 11 Cecum): 5.24 Log^10 of gene copies/g
- Bacillus spp. ([1]; Day 11 Ileum): 5.68 Log^10 of gene copies/g
- Bacillus spp. ([1]; Day 18 Cecum): 4.54 Log^10 of gene copies/g
- Bacillus spp. ([1]; Day 18 Ileum): 4.94 Log^10 of gene copies/g
- Bacillus spp. ([1]; Day 35 Cecum): 5.23 Log^10 of gene copies/g
- Bacillus spp. ([1]; Day 35 Ileum): 4.84 Log^10 of gene copies/g
- Footpad Lesion Score (0-4) [2]: 0.41
- BW, average bird body weight [3, 7]: 2778.4 g
- FCR, feed conversion ratio (feed to gain) [3, 7]: 1.431 g/g
- aFCR, feed conversion ratio adjusted for mortalities [3, 7]: 1.425 g/g
- Mortality as a percentage of the pen population ([3]; day 11-35, necrotic enteritis challenge): 1.3%
- C. perfringens ([4]; Day 11 Cecum): 6.38 Log^10 of gene copies/g
- C. perfringens ([4]; Day 11 Ileum): 4.18 Log^10 of gene copies/g
- C. perfringens ([4]; Day 18 Cecum): 4.87 Log^10 of gene copies/g
- C. perfringens ([4]; Day 18 Ileum): 4.60 Log^10 of gene copies/g
- C. perfringens ([4]; Day 35 Cecum): 4.81 Log^10 of gene copies/g
- C. perfringens ([4]; Day 35 Ileum): 4.03 Log^10 of gene copies/g

Compound: Bacitracin Methylene Disalicyclate [BMD]
- BW, average bird body weight ([5]; 1-21 d): 649.4 g
- FCR, feed conversion ratio (feed to gain) ([5]; 1-21 d): 1.45 g/g
- BW, average bird body weight ([5]; 1-42 d): 2321.4 g
- FCR, feed conversion ratio (feed to gain) ([5]; 1-42 d): 1.74 g/g

Compound: Zinc Bacitracin [ZnB]
- BW, average bird body weight [6]: 2988.0 g
- FCR, feed conversion ratio adjusted for mortalities [6]: 1.78 g/g
- Mortality [6]: 1.67%

From US11173184B2 (priority 2016, dated 2021)
